The target of the assay is T1, TR α1 (Rattus norvegicus, UniProt P63059).
T1 construct: made in house; host or cells: E. coli
The assay is described as follows: Receptor Binding Assays of TR Ligands ([125I]T3 displacement), TR α1.

The structures appear in SMILES notation.

T1 sequence (P63059 other isoform, or with tags, fused parts or gaps): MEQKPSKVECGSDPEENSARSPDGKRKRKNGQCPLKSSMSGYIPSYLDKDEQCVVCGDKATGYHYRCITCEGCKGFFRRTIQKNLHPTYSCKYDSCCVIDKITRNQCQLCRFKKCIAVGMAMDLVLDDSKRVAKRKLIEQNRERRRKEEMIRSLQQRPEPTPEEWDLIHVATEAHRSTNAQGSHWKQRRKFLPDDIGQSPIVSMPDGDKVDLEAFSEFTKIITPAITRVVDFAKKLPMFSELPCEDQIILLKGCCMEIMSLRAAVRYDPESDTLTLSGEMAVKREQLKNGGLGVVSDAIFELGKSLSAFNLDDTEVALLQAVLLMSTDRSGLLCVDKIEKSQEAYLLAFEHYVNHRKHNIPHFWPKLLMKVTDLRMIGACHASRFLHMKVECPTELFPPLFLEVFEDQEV

For `Cc1cc(OCC(=O)O)cc(C)c1Cc1ccc(O)c(C(C)C)c1` [GC1, [3,5-dimethyl-4-(4'-hydroxy-3'-isopropylbenzyl)-phenoxy] acetic acid], the concentration for half-maximal inhibition (IC50) was 20 nM. That is a double-digit nanomolar value.

As usually defined, the IC50 is the point on the concentration scale where inhibition reaches its midpoint.
